A short description of data set [1]: Stability test of crystal: long-term test. The data set is classed as physicochemical. As to conditions: 25° C. ± 2° C., relative humidity of 60% ± 10%. On the procedure: (§1) The XRPD was measured using a PHASER BRUKER D2 X-ray powder diffractometer with a wavelength of 1.54060 Å. The melting point was measured using an YRT-3 melting point apparatus (manufactured by Tianjin University). The content was determined by HPLC with reference to Chinese Pharmacopoeia, 2010 edition, Part II, Appendix V D, using octadecylsilane bonded silica gel as a filler, and ammonium formate buffer solution and acetonitrile as a mobile phase; detection wavelength of 260 nm and column temperature of 40° C. The moisture content was determined using a METTLER TOLEDO DL31 Karl Fischer moisture analyzer.
(§2) The conditions and methods for the stability test of crystal were performed according to the requirements of the Chinese Pharmacopoeia (2010 edition), Part II, Appendix XIX C, Guidelines for Stability Tests of Active Pharmaceutical Ingredients and Pharmaceutical Preparations. The crystalline Form A prepared in Example 1 was used as a test sample. A medicinal low-density polyethylene bag was used as an inner package for a sample, and polyester/aluminum/polyethylene composite bag for pharmaceutical packaging was used as an outer packaging material for a sample.

Data set [2] can be described thus: Stability test of crystal: accelerated test. It is filed as physicochemical. Particulars: 40° C. ± 2° C., relative humidity of 75% ± 5%. On the procedure:
as §1, §2

Turning to `C=CC(=O)N1CCC(Nc2cc3c(Nc4ccc(F)c(Cl)c4)ncnc3cc2OC)CC1`, the “Content of the crystalline Form A of the maleate of the compound of Formula (I) (HPLC)” value in data set [1] (0 month) amounted to 99.4%; in data set [1] (3 months), 99.3%; in data set [1] (6 months) it was 99.4%; in data set [1] (9 months), 99.2%; in data set [1] (12 months) it was 99.4%; in data set [1] (18 months), 99.2%. For the same molecule, the “Content of the crystalline Form A of the maleate of the compound of Formula (I) (HPLC)” value in data set [2] (0 month) was 99.4%; in data set [2] (1 month), 99.3%; in data set [2] (2 months) it was 99.2%; in data set [2] (3 months), 99.2%; in data set [2] (6 months) it was 99.3%. The Moisture in data set [1] (0 month) amounted to 0.17%; in data set [1] (3 months), 0.19%; in data set [1] (6 months) it was 0.20%; in data set [1] (9 months), 0.21%; in data set [1] (12 months), 0.22%; in data set [1] (18 months), 0.24%. Further, the Moisture in data set [2] (0 month) is given as 0.17%; in data set [2] (1 month), 0.19%; in data set [2] (2 months), 0.18%; in data set [2] (3 months) it was 0.19%; in data set [2] (6 months) it was 0.20%.
